Experimental findings from ChEMBL document CHEMBL1142849, “Synthesis and in vitro and in vivo antimycobacterial activity of isonicotinoyl hydrazones” (Bioorg Med Chem Lett, 2005) are described below.

Test [1] deals with Mycobacterium tuberculosis. Put plainly: In vitro inhibitory concentration against Mycobacterium tuberculosis [H37Rv stain]. The format is functional, organism-based.
Test [2] concerns Mycobacterium tuberculosis. Kind of test: In vitro minimal inhibitory concentration against Mycobacterium tuberculosis [H37Rv stain]. The format is functional.
Test [3] relates to Mycobacterium tuberculosis. Kind of test: Log CFU in lungs of mice infected with H37Rv stain of Mycobacterium tuberculosis after administration at 25 mg/Kg. The format is functional, Lung.

Converted amounts (≈) assume the structure as drawn.

Consider `C/C(=N/NC(=O)c1ccncc1)c1cccc(CN2CCN(c3ccc(F)cc3)CC2)c1O`, for which the IC50 in test [1] is > 14 µM. For the same molecule, the MIC in test [2] stood at 0.87 µM (≈ 0.389 µg/mL).
The like results for `C/C(=N/NC(=O)c1ccncc1)c1cccc(CN(Cc2ccccc2)Cc2ccccc2)c1O` were, in that order, > 13.5 µM and 3.36 µM (≈ 1.56 µg/mL).
The like results for `CCn1cc(C(=O)O)c(=O)c2cc(F)c(N3CCN(Cc4cccc(/C(C)=N\NC(=O)c5ccncc5)c4O)C(C)C3)c(F)c21` (centres undefined) were, in that order, > 10.1 µM and 1.26 µM (≈ 0.779 µg/mL).
For `C/C(=N/NC(=O)c1ccncc1)c1cccc(CN2CCN(c3ccccn3)CC2)c1O`, the 50% inhibitory concentration (IC50) in test [1] was > 14.5 µM. Further, inhibition of growth in test [2] (MIC) required 0.9 µM (≈ 0.387 µg/mL).
For `C/C(=N/NC(=O)c1ccncc1)c1cccc(CN2CCCCC2)c1O`, the IC50 in test [1] was > 17.7 µM. The molecule also yielded an MIC in test [2] of 4.43 µM (≈ 1.56 µg/mL).
On to `C/C(=N/NC(=O)c1ccncc1)c1cccc(CN(c2ccccc2)c2ccccc2)c1O`, for which the IC50 in test [1] was > 14.3 µM. The molecule also registered an MIC in test [2] of 3.57 µM (≈ 1.56 µg/mL).
Consider `C/C(=N/NC(=O)c1ccncc1)c1cccc(CN2CCNCC2)c1O`, for which, in test [1], the IC50 was > 17.7 µM. Moreover, in test [2], the lowest concentration to inhibit growth (MIC) was 0.56 µM (≈ 0.198 µg/mL). The “Log CFU” value in test [3] is 6.08.
In the case of `CCCCN(CCCC)Cc1cccc(/C(C)=N\NC(=O)c2ccncc2)c1O`, the IC50 in test [1] was > 15.8 µM. This molecule also displayed an MIC in test [2] of 3.93 µM (≈ 1.56 µg/mL).
The like results for `C/C(=N/NC(=O)c1ccncc1)c1cccc(CN2CCCC2)c1O` were, in that order, > 18.5 µM and 4.61 µM (≈ 1.56 µg/mL).
The like results for `C/C(=N/NC(=O)c1ccncc1)c1cccc(CN2CCN(C)CC2)c1O` were, in that order, > 17.2 µM and 8.61 µM (≈ 3.16 µg/mL).
The like results for `CCN(CC)Cc1cccc(/C(C)=N\NC(=O)c2ccncc2)c1O` were, in that order, > 18.4 µM and 2.29 µM (≈ 0.78 µg/mL).
Turning to `C/C(=N/NC(=O)c1ccncc1)c1cccc(CN2CCN(c3cc4c(cc3F)c(=O)c(C(=O)O)cn4C3CC3)CC2)c1O`, the concentration for half-maximal inhibition (IC50) in test [1] was > 10.4 µM. In test [2], this molecule returned an MIC of 1.3 µM (≈ 0.778 µg/mL).
With `C/C(=N/NC(=O)c1ccncc1)c1cccc(CN2CCOCC2)c1O`, the IC50 in test [1] was > 17.6 µM. The MIC in test [2] amounted to 2.2 µM (≈ 0.78 µg/mL).
For `C/C(=N/NC(=O)c1ccncc1)c1cccc(CN2CCN(Cc3ccccc3)CC2)c1O`, in test [1], the concentration for half-maximal inhibition (IC50) was > 14.1 µM. This molecule gave an MIC in test [2] of 0.88 µM (≈ 0.39 µg/mL).
Take `C/C(=N/NC(=O)c1ccncc1)c1cccc(CN(C)C)c1O`: the IC50 in test [1] is > 20 µM. In test [2], this molecule had an MIC of 2.49 µM (≈ 0.778 µg/mL).
`NNC(=O)c1ccncc1` [ISONIAZID]: in test [1], the IC50 was > 45.6 µM. The same molecule gave an MIC in test [2] of 2.04 µM (≈ 0.28 µg/mL). The “Log CFU” value in test [3] is 6.38.
